From US11390617B2, “Methods of treating non-Hodgkin lymphoma using 2-(2,6-dioxopiperidin-3-yl)-4-((2-fluoro-4-((3-morpholinoazetidin-1-yl)methyl)benzyl)amino)isoindoline-1,3-dione” (Celgene Corporation, priority 2019, dated 2022)

Experiments:
[1] = test system: lymphoma cell lines WSU-DLCL2, SU-DHL6, and RL; experiment: NK mediated cell killing (ADCC) with rituximab; assay type: cell-based, human; settings: NK cells pre-treated with Compound 1 100 nM 18 hours; rituximab 7.5 ug/mL, 4 hours
Method: Commercial purified NK cells isolated from human peripheral blood mononuclear cell (PBMC) were seeded at a concentration of 10^6 cells/mL, cultured in media supplemented with 10 ng/mLrhIL-2 and treated with Compound 1 (100 nM) for 18 hours at 37° C. prior to cytotoxicity assays. Target lymphoma cell lines were added to the pre-treated effector NK cells at a 1:10 (target:effector) cell ratio for WSU-DLCL2 and RL lines or 1:3 for SU-DHL6. At the time of co-culture, rituximab or isotype control at 7.5 ug/mL were added to the media and cells were incubated for 4 hours at 37° C. Then, cells were collected, stained with CD20, Annexin V and 7AAD and analyzed by FACS.

[2] = test system: OCI-LY10-Luc CNS DLBCL xenograft; experiment: OCI-LY10-Luc CNS lymphoma xenograft model (intracranial); assay type: in vivo, Nude (nu/nu) mice; settings: for % BLI Inhibition on Day 26 / Median Survival: 3 weeks; for % BLI Inhibition on Day 26: relative to vehicle control; for Median Survival: vehicle 35 days
Method: Antitumor activity of Compound 1 was evaluated as a single agent in OCI-LY10-luc diffuse large B-cell lymphoma (DLBCL) xenografted intracranially into nude mice as a model for central nervous system (CNS) lymphoma.
CNS lymphoma study was conducted with OCI-LY-10 cells transfected with luciferase (OCI-LY-10-Luc). Nude (nu/nu) mice were inoculated intracranially into the right cerebral hemisphere of the brain with OCI-LY10-Luc cells. Following inoculation of animals, the tumors were allowed to grow for 5 days. On day 5 following tumor cell inoculation, the mice were imaged using IVIS100 imaging system. The mice having tumors with an average flux ranging between 1×10^7 and 2×10^7 photons/sec were pooled together and randomized into various treatment groups. Compound 1 was formulated in 0.5% Methyl Cellulose, 0.25% Tween 80 and 50 mM Citrate pH 3 (MCT) in water. The animals were orally administered vehicle (MCT) or Compound 1 once daily (QD) for 3 weeks. Doses of Compound 1 ranged between 3 and 30 mg/kg. The positive control pomalidomide (30 mg/kg, QD) formulated in aqueous 0.5% CMC and 0.25% Tween-80 was administered PO. The animals were imaged for bioluminescence once a week using IVIS100 imaging system and monitored for survival. Statistical analysis was performed using a log-rank test between Compound 1-treated and vehicle-treated control groups.

SU-DHL-4 cell line = experiment: Cell proliferation and viability assay using SU-DHL-4 cell line (Cell Titer-Glo); assay type: cell-based; settings: Homo sapiens, SU-DHL-4, 120 hours
Method: The following exemplary assay uses a DLBCL cell line, for example, the SU-DHL-4 cell line (Deutsche Sammlung von Mikroorganismen und Zellkulturen GmbH [DSMZ]: catalogue number ACC-495) at 120 hours post-treatment. The seeding density for SU-DHL-4 can be optimized to ensure assay linearity in 1536-well plates.
Increasing concentrations (0.5 nM to […]) of Compounds 1, 2, and 3 were each spotted in a 20-point dilution fashion (unevenly spaced data points) via an acoustic dispenser (EDC ATS-100) into an empty 1536-well plate. The DMSO concentration was kept constant for a final assay concentration of 0.1% DMSO. Prior to testing, SU-DHL-4 cells were grown in RPMI-1640 (Roswell Park Memorial Institute-1640) medium with 10% FBS (fetal bovine serum: HyClone) and expanded in culture flasks to provide sufficient amounts of starting material. Cells were then diluted to 500 cells per well in a 5 μL volume, and added directly to the compound-spotted 1536-well plates. Cells were allowed to grow for 120 hours in 5% CO2 at 37° C. At the time when exposure of cells to compound began (t0), initial viable cell number was assessed via Cell Titer-Glo® Luminescent Cell Viability Assay at a 1 vol: 2 vol ratio according to manufacturer's instructions (Promega Corporation, Madison, Wis.) by quantifying the level of luminescence generated by adenosine-5′-triphosphate (ATP) present in viable cells. After 120 hours, cell viability of the treated cells was assessed via Cell Titer-Glo© and read for luminescence. All growth inhibition curves were processed and evaluated using Activity Base (IDBS, Alameda, Calif.). Cell viability IC50 values were calculated using a four parameter logistic model (sigmoidal dose-response model): y=(A+((B−A)/(1+((C/x)^D)))) wherein: A=YMin B=YMax C=EC50 D=Hill slope IC50=the concentration of the compound when Y=50% of DMSO control Y=cell viability measured as luminescence unit, and x=concentration of compound.

[3] = test system: RL follicular lymphoma xenograft tumors; experiment: RL (follicular lymphoma) xenograft model, monotherapy; assay type: in vivo, female SCID mice; settings: 5 days on 2 days off for 3 weeks
Method: Anti-tumor activity of Compound 1 was evaluated as monotherapy (between 1 and 30 mg/kg, qd) in RL (follicular lymphoma) xenograft model.
Xenograft study was conducted with female SCID mice bearing RL follicular lymphoma xenograft tumors. Female SCID mice were inoculated subcutaneously with RL cells in the flank region above the right hind leg. Following inoculation of animals, the tumors were allowed to grow to approximately 200 mm^3 prior to randomization. On day 14 following tumor cell inoculation, the mice bearing RL tumors ranging between 150 and 250 mm^3 were pooled together and randomized into various treatment groups. Compound 1 was formulated in 0.5% Methyl Cellulose, 0.25% Tween 80 and 50 mM Citrate pH 3 in water. Compound 1 at 1, 3, 10 or 30 mg/kg was orally administered once daily with a 5 days on and 2 days off schedule for 3 weeks starting from day 14 after tumor cell inoculation. Tumors were measured twice a week using calipers and tumor volumes were calculated using the formula of W^2×L/2. Statistical analysis was performed using a one-way or 2-way analysis of variance (ANOVA). Synergy calculations were performed using fractional product method.

[4] = 3, 10 and 30 mg/kg oral once daily

SMILES: O=C1CC[C@H](N2C(=O)c3cccc(NCc4ccc(CN5CC(N6CCOCC6)C5)cc4F)c3C2=O)C(=O)N1 [Compound 1, (S)-2-(2,6-dioxopiperidin-3-yl)-4-((2-fluoro-4-((3-morpholinoazetidin-1-yl)methyl)benzyl)amino)isoindoline-1,3-dione]
- rituximab cytotoxicity of lymphoma cell lines (NK mediated cell killing, ADCC) [1]: able to increase rituximab cytotoxicity of lymphoma cell lines
- % BLI Inhibition on Day 26 ([2]; 3 mg/kg QD oral): 97.2%
- Median Survival ([2]; 3 mg/kg QD oral): 61 days
- % BLI Inhibition on Day 26 ([2]; 10 mg/kg QD oral): 99.1%
- Median Survival ([2]; 10 mg/kg QD oral): 69 days
- animals survived with no detectable bioluminescence signal ([2]; 10 mg/kg, day 120 (2/9)): 22.2%
- % BLI Inhibition on Day 26 ([2]; 30 mg/kg QD oral): 99.5%
- Median Survival ([2]; 30 mg/kg QD oral): 97 days
- animals survived with no detectable bioluminescence signal ([2]; 30 mg/kg, day 120 (3/9)): 33.3%
- IC50 (SU-DHL-4 cell line): < 200 nM
- inhibited RL follicular lymphoma tumor growth ([3]; 1 mg/kg oral once daily): −96.8%
- tumor free animals [3, 4]: all the animals became tumor free
- tumor growth [3, 4]: completely inhibited
